{"source": "patent US6355232B1", "about": "“Agent for protecting skin and hair moisture” (Takasago International Corporation, priority 1996, dated 2002)", "key": {"[1]": {"experiment": "Solubility in cosmetic solvents", "type": "physicochemical", "protocol": "Solubilities of ceramide-II (hereinafter referred to as CeII) of (2S,3R) type and ceramides of other optical isomers were studied. Ethanol, isopreneglycol, propylenglycol, glycerol, oleic acid, ethyl oleate and isopropyl myristate were used as the cosmetic solvents. Each sample was heated up to about 90° C. with vigorous shaking and cooled down to room temperature and then observed visually. 1."}, "[2]": {"experiment": "Water-holding capacity (WHC) test of sample solution", "type": "physicochemical", "protocol": "(§1) A sample solution was prepared, based upon the lamellar liquid crystal (LLC) method of various methods for preparing liposome [Colloids and Surfaces, 69, p.125 (1992)]. Appropriate amounts of the lipid mixture (for example, Ce II (2S,3R)/CL/CS, a weight ratio of 40/30/30, corresponding to the LLC region of the phase diagram) were weighed into a test tube, allowed to stand at 135° C. for 10 minutes, cooled down to room temperature and then appropriate amounts of propylene glycol/glycerol (a weight ration of 1/1) were added to the mixture. These samples were left at 135° C. for 10 minutes and then shaken vigorously. This procedure was repeated three times. Then, oleic acid and an aqueous solution of L-arginine were added in turn and shaken (80 to 90° C.). The LLC gel thus obtained was diluted with a buffer of pH 6.86 to give a vesicle solution of a uniform mixture of ceramides.\nA sample solution was applied to a small petri dish and left at 37° C. and a humidity of 40%. The water evaporated as the time lapsed was measured and the ratio of the water remaining in the sample was calculated from the measured value to study WHC.\nThe samples tested as shown in Table 2 were all mixtures of ceramide/CL/CS (40/30/30) and dispersed with 10% arginine oleate. A control was an aqueous solution of propyleneglycol/glycerol (1/1). […]"}, "[3]": {"experiment": "Water-barrier function (WBF) test, water-evaporation rate", "type": "physicochemical", "conditions": "for Water-evaporation rate (mg/hr/cm2): ceramide/CL/CS (40/30/30) dispersed with 10% arginine oleate, 37° C., humidity 40%", "protocol": "as §1\nA sample solution was coated over a supporting membrane covered with a protein at the surface and left under vacuum overnight to remove water thoroughly. The membrane was fixed in the stainless dish containing 20 ml of water and allowed to stand at 37° C. and a humidity of 40%. The evaporated water was calculated per time unit and area unit to determine the water-evaporation rate of WBF.\nAll samples tested as shown in Table 4 were mixtures of ceramide/CL/CS (40/30/30) and dispersed with 10% arginine oleate.\nAll samples tested as shown in Table 5 were mixtures of ceramide/CL/CS (40/30/30) and dispersed with 10% arginine oleate."}, "[4]": {"system": "forearm treated with chloroform/methanol (damaged skin)", "experiment": "Transepidermal water-loss (TEWL) test", "type": "in vivo, human", "conditions": "for TEWL (g/m^2/hr): ceramide/CL/SSL (50/20/30) dispersed with 10% arginine oleate, forearm, twice per day for 2 days, data after 10 hours", "protocol": "The forearm was treated with chloroform/methanol (1/1), each sample was coated on the site and TEWL was determined (n=4, twice per day, used for 2 days).\nAll tested samples were the (2S,3R) type and the (2S,3S) type and were mixtures of ceramide/CL/SSL (=sodium stearyllactate) (50/20/30). They were dispersed with 10% arginine oleate."}, "[5]": {"experiment": "Test on conditioner effect to hair (WHC)", "conditions": "ceramide/CL/SA (40/20/40) dispersed with 10% arginine oleate, 35° C., humidity 70% overnight", "protocol": "Hairs were treated with chloroform/methanol (2/1) and bundles of hairs were coated with samples, rinsed away and then dried under vacuum overnight. They were left at 35° C. and a humidity of 70% overnight. They were weighed to determine the hydrated amount to the dried hairs as WHC.\nAll tested samples were the (2S,3R) type and the (2S,3S) type and were mixtures of ceramide/CL/SA (=stearic acid) (40/20/40). They were dispersed with 10% arginine oleate."}}}
{"smiles": "CCCCCCCCCCCCCCCCCC(=O)N[C@@H](CO)[C@H](O)CCCCCCCCCCCCCCC", "note": "[(2S,3R), ceramide-II of erythro (2S,3R) type]", "values": [{"measurement": "solubility in cosmetic solvents", "setting": "[1]; compared among Ce II isomers", "result": "lowest solubility"}, {"measurement": "level dissolved in ethanol", "setting": "[1]; ethanol", "result": 0.1, "unit": "%"}, {"measurement": "Water-holding capacity (%) (After 5 hours)", "setting": "[2]; ceramide/CL/CS (40/30/30) dispersed with 10% arginine oleate, 37° C., humidity 40%, after 5 hours", "result": 22.4, "unit": "%"}, {"measurement": "water-holding capacity compared", "setting": "[2]; versus the racemates, the SP ceramide, etc.", "result": "significantly higher water-holding capacity"}, {"measurement": "Water-evaporation rate (mg/hr/cm2)", "setting": "[3]; Table 4", "result": 2.5, "unit": "mg/hr/cm2"}, {"measurement": "Water-evaporation rate (mg/hr/cm2)", "setting": "[3]; Table 5", "result": 2.5, "unit": "mg/hr/cm2"}, {"measurement": "capacity to restrain the water evaporation", "setting": "[3]; versus other types", "result": "more superior to other types"}, {"measurement": "TEWL (g/m^2/hr)", "setting": "[4]", "result": 2.8, "unit": "g/m^2/hr"}, {"measurement": "TEWL improvement", "setting": "[4]; compared with uncoated sites / non-treated normal skin", "result": "can recover to the TEWL value of the non-treated normal skin more rapidly"}, {"measurement": "Water-holding capacity (%)", "setting": "[5]", "result": 8.2, "unit": "%"}, {"measurement": "melting point", "result": "95 to 96", "unit": "°C"}]}
{"smiles": "CCCCCCCCCCCCCCCCCC(=O)N[C@H](CO)[C@@H](O)CCCCCCCCCCCCCCC", "note": "[(2R,3S), erythro (2R, 3S) type of ceramide-II, reference compound]", "values": [{"measurement": "Water-evaporation rate (mg/hr/cm2)", "setting": "[3]; Table 5", "result": 2.9, "unit": "mg/hr/cm2"}]}
{"smiles": "CCCCCCCCCCCCCCCCCC(=O)N[C@@H](CO)[C@@H](O)CCCCCCCCCCCCCCC", "note": "[(2S,3S), threo (2S, 3S) type of ceramide-II]", "values": [{"measurement": "Water-evaporation rate (mg/hr/cm2)", "setting": "[3]; Table 5", "result": 3.6, "unit": "mg/hr/cm2"}, {"measurement": "TEWL (g/m^2/hr)", "setting": "[4]", "result": 4.1, "unit": "g/m^2/hr"}, {"measurement": "melting point", "result": 101, "unit": "°C"}]}
